Experimental data reported in patent US11076597B2, “High stress resistant plant growth regulator and preparation method and use thereof” (SHANGHAI INSTITUTES FOR BIOLOGICAL SCIENCES, CHINESE …, priority 2015, dated 2021).
Entries after “also recorded” stand apart in the source; their conditions may differ. Like-named read-outs stand apart in the source and are kept apart here.

Legend:
[1] = target: T1, PYL2 receptor-HAB1 protein phosphatase complex (Arabidopsis thaliana, UniProt O80992); experiment: AlphaScreen assay: promotion of PYL2 receptor binding to PP2C protein phosphatase HAB1; conditions: 6×His-SUMO-tagged PYL2 (aa 14-188), Biotin-tagged HAB1 (aa 172-511), 100 nM each, pH 7.4, 1.5 h room temperature
T1 construct: made in house; host or cells: E. coli BL21 (DE3)
T1 sequence (O80992 14-188): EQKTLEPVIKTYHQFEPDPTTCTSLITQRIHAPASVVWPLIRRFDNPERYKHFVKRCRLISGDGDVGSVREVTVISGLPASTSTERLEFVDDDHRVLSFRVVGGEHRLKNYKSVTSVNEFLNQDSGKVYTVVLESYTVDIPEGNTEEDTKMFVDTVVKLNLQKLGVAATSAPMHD
T1 sequence (Q9CAJ0 172-511 partner limits assumed): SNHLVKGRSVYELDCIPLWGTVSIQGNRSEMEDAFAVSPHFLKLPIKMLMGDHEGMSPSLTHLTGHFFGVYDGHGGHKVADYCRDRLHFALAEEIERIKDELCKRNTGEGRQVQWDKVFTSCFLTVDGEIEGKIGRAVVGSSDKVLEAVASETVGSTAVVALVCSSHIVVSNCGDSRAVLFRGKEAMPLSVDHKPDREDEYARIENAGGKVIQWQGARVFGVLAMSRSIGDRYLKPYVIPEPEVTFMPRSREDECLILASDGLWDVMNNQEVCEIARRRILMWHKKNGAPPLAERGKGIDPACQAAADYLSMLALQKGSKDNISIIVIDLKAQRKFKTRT
From the text: The construction method of recombinant plasmids for the Arabidopsis thaliana genes PYL1 (amino acid sequence 36-211), PYL2 (amino acid sequence 14-188) with dual tags of 6×His and SUMO sequence and the Arabidopsis thaliana gene HAB1 (amino acid sequence 172-511) with the Biotin tag sequence is described in detail in “A gate-latch-lock mechanism for hormone signaling by abscisic acid receptors” (Nature, Vol 462, 2009). The construction method of recombinant plasmids for PYR1 and PYL7 (whole gene coding sequence) and Soybean GmPYL6 and rice OsPYL2 with dual tags of 6×His and SUMO sequence is the same as that for Arabidopsis PYL2.
The above recombinant plasmid is transformed into competent cell of E. coli BL21 (DE3) (purchased from NEB company), and inoculated into 200 ml of LB liquid medium containing Amp resistance (purchased from OXOID company) and cultured overnight at 37° C. at 200 rpm; and inoculated into 2 L of LB liquid medium containing Amp resistance at a ratio of 1:50-1:100 for an extended culture, and cultured at 37° C., 200 rpm for 3-4 hours, and at a low temperature of 16° C. until OD600 is about 0.8-1.0. Recombinant plasmids for PYR1/PYL1/PYL2/PYL7/GmPYL6/OsPYL2 with dual tags of 6×His and SUMO sequence were induced overnight with 100 μM of IPTG while HAB1 recombinant plasmid with the Biotin tag sequence was induced simultaneously with 100 μM of IPTG and 40 μM of biotin.
After 16 hours of induction, the bacterial solution was centrifuged at 4000 rpm for 20 minutes at 4° C. in a low-speed high-capacity centrifuge, and the bacteria cells were collected. Bacteria cells were resuspended in 50 ml of extraction buffer (containing 20 mM Tris, pH 8.0, 200 mM NaCl and 10% (v/v) glycerol) for per 2 L of bacterial solution and then subjected to pressure-breaking at […] and 4° C. for 3-5 times. The broken cells were subjected to ultracentrifugation, centrifuged at 16000 rpm for 30 minutes, and this process was repeated twice. The supernatant was collected and subjected to an affinity chromatography column.
For PYR/PYL proteins with dual tags of 6×His and SUMO sequences, 50 ml of affinity chromatography Ni column (50 ml Ni-NTA column, available from GE) was used. Firstly, the column was equilibrated with 600 ml of 10% buffer B (containing 20 mM Tris, PH 8.0, 200 mM NaCl, 500 mM imidazole and 10% glycerol), and then eluted with 200 ml of 50% buffer B and finally eluted with 100 ml of 100% buffer B. Proteins for crystal analysis were mixed with ulp1 enzyme at a molar ratio of 1000:1 for enzymatic dialysis overnight. The digested proteins were subjected to affinity chromatography on a Ni column once more. The collected solution was subjected to a HiLoad 26/60 Superdex200 gel filtration column (commercially available from GE) and eluted with an elution solution (containing 25 mM Tris, pH 8.0, 200 mM ammonium acetate, 1 mM dithiotreitol and 1 mM EDTA) to further separate and purify the protein.
For a HAB1 protein with a Biotin tag sequence, it was subjected to a 50 ml MBP affinity column (available from GE). The column was firstly equilibrated with 600 ml of 10% buffer C (containing 20 mM Tris, pH 8.0, 200 mM NaCl, 10 mM Maltose and 10% Glycerol), and eluted with 200 ml of 50% buffer C and finally eluted with 100 ml of 100% buffer C. The collection solution was subjected to a HiLoad 26/60 Superdex200 gel filtration column and eluted with an elution solution (containing 20 mM Tris, pH 8.0, 200 mM NaCl and 10% Glycerol) to further separate and purify the protein. […]

[2] = tested on: Arabidopsis aba2-1; experiment: Leaf transpiration experiment (leaf temperature by thermal imager), Arabidopsis; format: in vivo, Arabidopsis thaliana; conditions: for duration of the leaf temperature increase: FIG. 4a, 4c; for inhibitory effect on leaf transpiration compared with ABA: Arabidopsis aba2-1, spray
Procedure: ABA synthesis mutant aba2-1 was used in Arabidopsis leaf transpiration experiment. […] Therefore, this mutant is used to exclude the effect of endogenous ABA on the transpiration experiment. The plants were sprayed with a solution containing 0.05% tween-20 and corresponding concentrations of (+)-ABA/0224/0304/0706/0715/0428 or 0.05% Tween-20 and 0.05% DMSO (control) after three weeks of continuous watering with an amount of 1.2 ml/pot. Leaf transpiration experiments of soybeans were conducted at 26° C. with long-day lighting and soybeans were sprayed with a solution containing 0.1% tween-20 and 20 μM (+)-ABA/0224/0304 compound or 0.1% Tween-20 and 0.05% DMSO (control) 14 days after sowing with an amount of 4 ml/pot; the leaf transpiration experiments of cottons were sprayed with a solution containing 0.1% tween-20 and 20 μM (+)-ABA/0224 compound or 0.1% Tween-20 and 0.05% DMSO, respectively, 25 days after sowing with an amount of 4 ml/pot; the leaf transpiration experiments of wheats were sprayed with a solution containing 0.1% tween-20 and 100 μM (+)-ABA/0224 compound or 0.1% Tween-20 and 0.05% DMSO (control) 18 days after sowing with an amount of 6 ml/pot. Images were taken daily using the FLIR A655sc thermal imager at the same time before and after spraying.
In this experiment, the temperature change of leaf surface was observed and recorded by an infrared camera, thus reflecting the strength of plant transpiration. The stronger the transpiration, the lower the leaf temperature.

[3] = 5 μM spray, after spraying, FIG. 4a-4c
[4] = 5 μM spray, four days after spraying

Row | SMILES | EC50 ([1]; FIG. 2e, read-out: EC50) [nM] | EC50 ([1]; FIG. 2c, read-out: EC50) [nM] | leaf temperature versus DMSO control (leaf transpiration) [2, 3] | leaf temperature versus DMSO control (leaf transpiration) [2, 4] | duration of the leaf temperature increase ([2]; 5 μM spray) | inhibitory effect on leaf transpiration compared with ABA [2] | also measured
1 | CC1=CC(=O)CC(C)(C)[C@@]1(O)/C=C/C(C)=C\C(=O)O [ABA, Abscisic Acid, reference compound] | – | – | significantly increased compared to that with control (DMSO) treatment; also recorded: the leaf temperature was higher than that in the DMSO control group | had dropped to the level before spraying | – | – | EC50 ([1]; EC50, FIG. 2c): 866 nM; EC50 ([1]; EC50, FIG. 2e): 4960 nM; EC50 ([1]; EC50, FIG. 2f): 148 nM; EC50 ([1]; EC50, FIG. 2g): 3570 nM
2 | CCCN1C(=O)OC(C)(C)c2cc(NS(=O)(=O)Cc3c(F)c(F)c(C)c(F)c3F)ccc21 [Compound 0304] | – | 59.3 | significantly increased compared to that with control (DMSO) treatment; also recorded: the leaf temperature was higher than that in the DMSO control group | still significantly higher than that in the DMSO control | – | better than that of ABA | –
3 | CCCN1C(=O)OCc2cc(NS(=O)(=O)Cc3c(F)c(F)c(C)c(F)c3F)ccc21 [Compound 0428] | – | – | – | – | – | – | EC50 ([1]; FIG. 2f, read-out: EC50): 19.3 nM; leaf temperature versus DMSO control (leaf transpiration) ([2]; 5 μM/2 μM/1 μM, treated for one day, FIG. 4d): significantly increased compared to that with DMSO treatment; also recorded: higher than that in the DMSO control group

The next lines start with results.

Row | EC50 ([1]; FIG. 2e, read-out: EC50) [nM] | EC50 ([1]; FIG. 2c, read-out: EC50) [nM] | SMILES | leaf temperature versus DMSO control (leaf transpiration) [2, 3] | leaf temperature versus DMSO control (leaf transpiration) [2, 4] | duration of the leaf temperature increase ([2]; 5 μM spray) | inhibitory effect on leaf transpiration compared with ABA [2] | also measured
4 | 99.5 | – | Cc1c(F)c(F)c(CS(=O)(=O)Nc2ccc3c(c2)C(C)OC(=O)N3CCCF)c(F)c1F (stereo not shown) [Compound 0715] | significantly increased compared to that with control (DMSO) treatment; also recorded: significantly increased compared to the control (DMSO) treatment | – | equivalent to that of 0224 | – | –
5 | 92.1 | 29.6 | CCCN1C(=O)OC(C)c2cc(NS(=O)(=O)Cc3c(F)c(F)c(C)c(F)c3F)ccc21 (stereo not shown) [Compound 0224] | significantly increased compared to that with control (DMSO) treatment; also recorded: the leaf temperature was higher than that in the DMSO control group | still significantly higher than that in the DMSO control | longer | better than that of ABA | leaf temperature versus DMSO control (leaf transpiration) ([2]; 2 μM or 1 μM spray, four days after spraying, FIG. 4b): still significantly increased compared to that with control (DMSO) treatment; also recorded: still significantly higher than that in the DMSO control
6 | 101 | – | CCN1C(=O)OC(C)c2cc(NS(=O)(=O)Cc3c(F)c(F)c(C)c(F)c3F)ccc21 (stereo not shown) [Compound 0706] | significantly increased compared to that with control (DMSO) treatment; also recorded: significantly increased compared to the control (DMSO) treatment | – | equivalent to that of 0224 | – | –
